Where only a bound is given, the exact number is not on record here.

The assay addresses T1, ZAP-70 (Homo sapiens, UniProt P43403).
T1 sequence (P43403 1-619): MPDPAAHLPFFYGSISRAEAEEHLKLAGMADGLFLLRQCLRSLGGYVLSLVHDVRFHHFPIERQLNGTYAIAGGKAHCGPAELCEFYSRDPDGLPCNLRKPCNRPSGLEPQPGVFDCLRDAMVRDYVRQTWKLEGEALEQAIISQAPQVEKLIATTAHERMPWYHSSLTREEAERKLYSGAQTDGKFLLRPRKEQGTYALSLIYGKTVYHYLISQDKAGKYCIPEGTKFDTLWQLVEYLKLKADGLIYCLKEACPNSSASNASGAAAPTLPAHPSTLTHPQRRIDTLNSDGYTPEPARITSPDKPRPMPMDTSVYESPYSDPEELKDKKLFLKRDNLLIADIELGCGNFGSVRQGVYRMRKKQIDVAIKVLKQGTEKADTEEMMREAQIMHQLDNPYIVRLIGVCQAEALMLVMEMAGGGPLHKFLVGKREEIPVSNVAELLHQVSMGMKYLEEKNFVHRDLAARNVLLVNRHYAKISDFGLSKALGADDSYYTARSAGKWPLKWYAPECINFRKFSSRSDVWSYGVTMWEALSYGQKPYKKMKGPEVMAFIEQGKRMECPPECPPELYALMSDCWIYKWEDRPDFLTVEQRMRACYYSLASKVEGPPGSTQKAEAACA
Description: DELFIA assay (ZAP-70 kinase, phosphorylation of biotinylated poly(glu,tyr)). The class given is biochemical. The note with it: ZAP-70 DELFIA, class symbols; read-out: Activity (IC50 in vitro). Summed up: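 3.1 nM ZAP-70 pre-incubated 10 min at room temperature with compound ([…]) and 62.5 nM biotinylated poly(glu,tyr) in 62.5 mM Mops pH 7.0, 12.5 mM MgCl2, 12.5% glycerol, 6.25% DMSO (pre-incubation concentrations); ATP added from 5 mM stock, 30 min reaction, EDTA stop. Phosphorylation read by DELFIA europium anti-phosphotyrosine fluorescence (340/615).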
On to `N#Cc1ccc(-c2ccc3nc(NCc4ccc(-c5cccs5)cc4)cc(C(=O)N4CCC[C@H]4CN4CCCC4)c3c2)cc1` [Compound 234], for which the IC50 was greater than 10 µM.

For `N#Cc1ccc(-c2ccc3nc(NCc4ccccc4N4CCCCC4)cc(C(=O)N4CCC[C@H]4CN4CCCC4)c3c2)cc1` [Compound 235], the IC50 is greater than 10 µM.

Take `N#Cc1ccc(-c2ccc3nc(NCc4ccccc4OC(F)(F)F)cc(C(=O)N4CCC[C@H]4CN4CCCC4)c3c2)cc1` [Compound 236]: the concentration for half-maximal inhibition (IC50) was greater than 10 µM.

Take `N#Cc1ccc(-c2ccc3nc(NCc4cccc(C(F)(F)F)c4F)cc(C(=O)N4CCC[C@H]4CN4CCCC4)c3c2)cc1` [Compound 237]: the half-inhibitory concentration (IC50) is greater than 10 µM.

Turning to `N#Cc1ccc(-c2ccc3nc(NCc4cc(C(F)(F)F)ccc4F)cc(C(=O)N4CCC[C@H]4CN4CCCC4)c3c2)cc1` [Compound 238], the IC50 is greater than 10 µM.

As to `N#Cc1ccc(-c2ccc3nc(NCc4ccc(F)cc4C(F)(F)F)cc(C(=O)N4CCC[C@H]4CN4CCCC4)c3c2)cc1` [Compound 239], the concentration for half-maximal inhibition (IC50) was greater than 10 µM.

As to `N#Cc1ccc(-c2ccc3nc(NCc4ccc(C(F)(F)F)cc4F)cc(C(=O)N4CCC[C@H]4CN4CCCC4)c3c2)cc1` [Compound 240], the half-inhibitory concentration (IC50) was greater than 10 µM.

Take `N#Cc1ccc(-c2ccc3nc(NCc4cc(F)ccc4C(F)(F)F)cc(C(=O)N4CCC[C@H]4CN4CCCC4)c3c2)cc1` [Compound 241]: the IC50 is greater than 10 µM.

With `N#Cc1ccc(-c2ccc3nc(NCc4csc5ccc(Cl)cc45)cc(C(=O)N4CCC[C@H]4CN4CCCC4)c3c2)cc1` [Compound 242], the 50% inhibitory concentration (IC50) was greater than 10 µM.

With `N#Cc1ccc(-c2ccc3nc(NCCc4ccc(Br)cc4)cc(C(=O)N4CCC[C@H]4CN4CCCC4)c3c2)cc1` [Compound 243], the half-maximal inhibitory concentration (IC50) was greater than 10 µM.

As for `CCN(Cc1ccc(C)cc1)c1cc(C(=O)N2CCC[C@H]2CN2CCCC2)c2cc(-c3ccc(C#N)cc3)ccc2n1` [Compound 244], the half-inhibitory concentration (IC50) is greater than 10 µM.

As for `N#Cc1ccc(-c2ccc3nc(N4Cc5ccccc5C[C@H]4CO)cc(C(=O)N4CCC[C@H]4CN4CCCC4)c3c2)cc1` [Compound 245], the half-inhibitory concentration (IC50) is greater than 10 µM.

With `CN(Cc1cccc2ccccc12)c1cc(C(=O)N2CCC[C@H]2CN2CCCC2)c2cc(-c3ccc(C#N)cc3)ccc2n1` [Compound 246], the half-inhibitory concentration (IC50) is greater than 10 µM.

As for `N#Cc1ccc(-c2ccc3nc(N(CCCCO)Cc4ccccc4)cc(C(=O)N4CCC[C@H]4CN4CCCC4)c3c2)cc1` [Compound 247], the IC50 is greater than 10 µM.

Regarding `CN(Cc1ccc(Cl)c(Cl)c1)c1cc(C(=O)N2CCC[C@H]2CN2CCCC2)c2cc(-c3ccc(C#N)cc3)ccc2n1` [Compound 248], the IC50 was greater than 10 µM.

Regarding `N#Cc1ccc(-c2ccc3nc(NNCc4ccccc4)cc(C(=O)N4CCC[C@H]4CN4CCCC4)c3c2)cc1` [Compound 249], the IC50 was greater than 10 µM.

Consider `N#Cc1ccc(-c2ccc3nc(NCc4ccc(F)cc4Cl)cc(C(=O)N4CCC[C@H]4CN4CCCC4)c3c2)cc1` [Compound 250], for which the IC50 was greater than 10 µM.

Regarding `N#Cc1ccc(-c2ccc3nc(NCc4ccccc4-c4ccccc4)cc(C(=O)N4CCC[C@H]4CN4CCCC4)c3c2)cc1` [Compound 251], the IC50 was greater than 10 µM.

On to `N#Cc1ccc(-c2ccc3nc(NCc4ccc(-c5ccccc5)cc4)cc(C(=O)N4CCC[C@H]4CN4CCCC4)c3c2)cc1` [Compound 252], for which the IC50 was greater than 10 µM.

Regarding `N#Cc1ccc(-c2ccc3nc(N4CCCC4Cc4ccccc4)cc(C(=O)N4CCC[C@H]4CN4CCCC4)c3c2)cc1` (stereo partly shown) [Compound 253], the concentration for half-maximal inhibition (IC50) was greater than 10 µM.

Regarding `N#Cc1ccc(-c2ccc3nc(N4CCC(c5ccccc5)C4)cc(C(=O)N4CCC[C@H]4CN4CCCC4)c3c2)cc1` (stereo partly shown) [Compound 254], the concentration for half-maximal inhibition (IC50) is greater than 10 µM.

For the compound `N#Cc1ccc(-c2ccc3nc(N4CCOC(c5ccccc5)C4)cc(C(=O)N4CCC[C@H]4CN4CCCC4)c3c2)cc1` (stereo partly shown) [Compound 255], the IC50 is greater than 10 µM.

For the compound `N#Cc1ccc(-c2ccc3nc(N4CCSC(c5ccccc5)C4)cc(C(=O)N4CCC[C@H]4CN4CCCC4)c3c2)cc1` (stereo partly shown) [Compound 256], the IC50 was greater than 10 µM.

On to `N#Cc1ccc(-c2ccc3nc(N4CCCC4c4ccccc4)cc(C(=O)N4CCC[C@H]4CN4CCCC4)c3c2)cc1` (stereo partly shown) [Compound 257], for which the IC50 was greater than 10 µM.

Turning to `N#Cc1ccc(-c2ccc3nc(N4CCC[C@@H]4c4ccccc4Cl)cc(C(=O)N4CCC[C@H]4CN4CCCC4)c3c2)cc1` [Compound 258], the half-inhibitory concentration (IC50) is greater than 10 µM.

Turning to `N#Cc1ccc(-c2ccc3nc(N4CCCC4c4ccc(Cl)cc4)cc(C(=O)N4CCC[C@H]4CN4CCCC4)c3c2)cc1` (stereo partly shown) [Compound 259], the concentration for half-maximal inhibition (IC50) was greater than 10 µM.

For the compound `N#Cc1ccc(-c2ccc3nc(NCC4(c5ccc(Cl)cc5)CC4)cc(C(=O)N4CCC[C@H]4CN4CCCC4)c3c2)cc1` [Compound 260], the IC50 was greater than 10 µM.

With `N#Cc1ccc(-c2ccc3nc(N4CCC(c5ccc(Cl)cc5)C4)cc(C(=O)N4CCC[C@H]4CN4CCCC4)c3c2)cc1` (stereo partly shown) [Compound 261], the IC50 was greater than 10 µM.

Turning to `N#Cc1ccc(-c2ccc3nc(N4CCC(c5ccccc5F)C4)cc(C(=O)N4CCC[C@H]4CN4CCCC4)c3c2)cc1` (stereo partly shown) [Compound 262], the concentration for half-maximal inhibition (IC50) was greater than 10 µM.

Take `N#Cc1ccc(-c2ccc3nc(N4CCC(c5cccc(F)c5)C4)cc(C(=O)N4CCC[C@H]4CN4CCCC4)c3c2)cc1` (stereo partly shown) [Compound 263]: the IC50 was greater than 10 µM.

`N#Cc1ccc(-c2ccc3nc(N4CCC(c5ccc(F)cc5)C4)cc(C(=O)N4CCC[C@H]4CN4CCCC4)c3c2)cc1` (stereo partly shown) [Compound 264]: the IC50 was greater than 10 µM.

Regarding `N#Cc1ccc(-c2ccc3nc(N4CCCC(c5ccccc5)C4)cc(C(=O)N4CCC[C@H]4CN4CCCC4)c3c2)cc1` (stereo partly shown) [Compound 265], the IC50 was greater than 10 µM.

With `N#Cc1ccc(-c2ccc3nc(N4CCCC(c5ccc(C(F)(F)F)cc5)C4)cc(C(=O)N4CCC[C@H]4CN4CCCC4)c3c2)cc1` (stereo partly shown) [Compound 266], the half-maximal inhibitory concentration (IC50) is greater than 10 µM.

Regarding `N#Cc1ccc(-c2ccc3nc(N4CCCC(c5ccccc5F)C4)cc(C(=O)N4CCC[C@H]4CN4CCCC4)c3c2)cc1` (stereo partly shown) [Compound 267], the IC50 was greater than 10 µM.

In the case of `N#Cc1ccc(-c2ccc3nc(N4CCCC(c5cccc(F)c5)C4)cc(C(=O)N4CCC[C@H]4CN4CCCC4)c3c2)cc1` (stereo partly shown) [Compound 268], the IC50 was greater than 10 µM.

Regarding `N#Cc1ccc(-c2ccc3nc(N4CCCC(c5cccc(C(F)(F)F)c5)C4)cc(C(=O)N4CCC[C@H]4CN4CCCC4)c3c2)cc1` (stereo partly shown) [Compound 269], the IC50 is greater than 10 µM.

For the compound `N#Cc1ccc(-c2ccc3nc(NCc4cccs4)cc(C(=O)N4CCC[C@H]4CN4CCCC4)c3c2)cc1` [Compound 270], the IC50 is greater than 10 µM.

Turning to `Cc1ccsc1CNc1cc(C(=O)N2CCC[C@H]2CN2CCCC2)c2cc(-c3ccc(C#N)cc3)ccc2n1` [Compound 271], the IC50 is greater than 10 µM.

Consider `N#Cc1ccc(-c2ccc3nc(NCC4(c5cccs5)CC4)cc(C(=O)N4CCC[C@H]4CN4CCCC4)c3c2)cc1` [Compound 272], for which the 50% inhibitory concentration (IC50) was greater than 10 µM.

In the case of `CN(CCc1cccs1)c1cc(C(=O)N2CCC[C@H]2CN2CCCC2)c2cc(-c3ccc(C#N)cc3)ccc2n1` [Compound 273], the 50% inhibitory concentration (IC50) is greater than 10 µM.

`O=C(c1cc(CCc2ccccc2)nc(CCc2ccccc2)c1)N1CCC[C@H]1CN1CCCC1` [Compound 274]: the IC50 is greater than 10 µM.

In the case of `CN(Cc1ccccc1)c1cc(C(=O)N2CCC[C@H]2CN2CCCC2)cc(-c2ccccc2)n1` [Compound 275], the half-inhibitory concentration (IC50) is greater than 10 µM.

Consider `CN(Cc1ccccc1)c1cc(C(=O)N2CCC[C@H]2CN2CCCC2)cc(-c2ccc3c(c2)OCO3)n1` [Compound 276], for which the IC50 is greater than 10 µM.

As for `CCCCCCc1cc(C(=O)N2CCC[C@H]2CN2CCCC2)cc(N(C)Cc2ccccc2)n1` [Compound 277], the 50% inhibitory concentration (IC50) was greater than 10 µM.

Turning to `CN(Cc1ccccc1)c1cc(C(=O)N2CCC[C@H]2CN2CCCC2)cc(/C=C/c2ccc(C(F)(F)F)cc2)n1` [Compound 278], the 50% inhibitory concentration (IC50) was greater than 10 µM.

Regarding `CN(Cc1ccccc1)c1cc(C(=O)N2CCC[C@H]2CN2CCCC2)cc(/C=C/c2ccccc2)n1` [Compound 279], the 50% inhibitory concentration (IC50) was greater than 10 µM.

For `O=C(c1cc(NCc2ccc(C(F)(F)F)cc2)nc2ccc(-c3ccc4c(c3)OCC4)cc12)N1CCC[C@H]1CN1CCCC1` [Compound 280], the IC50 was less than 1 µM.

`O=C(c1cc(NCc2ccc(C(F)(F)F)cc2)nc2ccc(C#Cc3ccccc3)cc12)N1CCC[C@H]1CN1CCCC1` [Compound 281]: the IC50 was less than 1 µM.

As for `COc1ccc(C#Cc2ccc3nc(NCc4ccc(C(F)(F)F)cc4)cc(C(=O)N4CCC[C@H]4CN4CCCC4)c3c2)cc1` [Compound 282], the half-maximal inhibitory concentration (IC50) was in the range of 1 to 10 µM.

Take `O=C(c1cc(NCc2ccc(C(F)(F)F)cc2)nc2ccc(C#Cc3ccc(Cl)cc3)cc12)N1CCC[C@H]1CN1CCCC1` [Compound 283]: the IC50 is less than 1 µM.

Consider `O=C(c1cc(NCc2ccc(C(F)(F)F)cc2)nc2ccc(C#Cc3cccc(C(F)(F)F)c3)cc12)N1CCC[C@H]1CN1CCCC1` [Compound 284], for which the 50% inhibitory concentration (IC50) was less than 1 µM.

Consider `O=C(c1cc(NCc2ccc(C(F)(F)F)cc2)nc2ccc(CCc3ccccc3)cc12)N1CCC[C@H]1CN1CCCC1` [Compound 285], for which the half-maximal inhibitory concentration (IC50) was in the range of 1 to 10 µM.

The term IC50 denotes the concentration needed to halve the response being measured.

These data come from US20080119515A1, “Heterocyclic Kinase Inhibitors: Methods of Use and Synthesis” (priority 2003, published 2008).
